From patent US10941157B2, “Pesticidal compositions and uses thereof” (Gilead Apollo, LLC, priority 2015, dated 2021) come the findings set out here.

Each structure is given as a SMILES string. Converted amounts (≈) assume the structure as drawn. Like-named read-outs stand apart in the source and are kept apart here.

One experiment has as its system Puccinia triticina. Description: Foliar protection test for wheat leaf rust control. The experiment is classed as in vivo. The note with it: foliar application to wheat (Triticum aestivum cv. Winterhawk), evaluated 10 days later.
Another experiment has as its system Septoria tritici (St). As to the kind of experiment: In vitro pathogen growth inhibition assay, St. To be noted: Zymoseptoria tritici, 48 h. The experiment is classed as cell-based. Put shortly:
(§1)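 Spores in 17% V8 liquid medium, or 1.5 mm Rs mycelial plugs in ¼ PDB, incubated with compound; final concentration checked by OD600 for precipitation. OD readings at 24 and 48 h, blank-subtracted, plus visual ratings; value is concentration giving ≥90% growth inhibition.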

In experiment [1] the test system is Collectotrichum graminicola (Cg). As to the kind of experiment: In vitro pathogen growth inhibition assay, Cg. To be noted: 48 h, ≥90% inhibition; 48 hours vs 2% DMSO control; read-out: Compound Concentration (ppm) sufficient for ≥90% inhibition of growth, Cg. The experiment is classed as cell-based. Put shortly: as §1
The test system of another experiment is Rhizoctonia solani (Rs). As to the kind of experiment: In vitro pathogen growth inhibition assay, Rs (mycelial plugs). The experiment is classed as cell-based. The note with it: mycelial plugs. In outline:
(§2)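 Spores of Dm, Fv and Pc were diluted in 17% V8 liquid medium; Rs used 1.5 mm mycelial plugs in ¼ PDB. Compounds from 2.5 mg/ml DMSO stocks were combined with inoculum, growth was read by OD600 at 24 and 48 h with blank subtraction, and the reported value is the concentration giving ≥90% inhibition.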

Experiment [2] relates to Fusarium moniliforme (Fm). As to the kind of experiment: In vitro pathogen growth inhibition assay, Fm. The experiment is classed as cell-based. The note with it: Fusarium verticillioides. Put shortly:
as §1

The subject of another experiment is Botrtyis cinerea (Bc). Description: In vitro pathogen growth inhibition assay, Bc. The experiment is classed as cell-based. The note with it: 48 h, ≥90% inhibition; 48 hours vs 2% DMSO control; read-out: Compound Concentration (ppm) sufficient for ≥90% inhibition of growth, Bc. Put shortly:
as §1

Experiment [3] has as its system Mycosphaerella graminicola (synthetic Septoria tritici). Description: Foliar protection test for wheat septoria leaf blotch control. It counts as in vivo. The note with it: foliar spray on Triticum aestivum cv. WinterHawk, inoculated 1 hour after treatment, evaluated 16 days later.
Experiment [4] has as its system Phytophthora capsici (Pc). As to the kind of experiment: In vitro pathogen growth inhibition assay, Pc. It counts as cell-based. To be noted: 48 h, ≥90% inhibition, 48 hours vs 2% DMSO control, read-out: Compound Concentration (ppm) sufficient for ≥90% inhibition of growth, Pc. Put shortly: as §2
For the next experiment, the system named is Diplodia maydis (Dm). Description: In vitro pathogen growth inhibition assay, Dm. The experiment is classed as cell-based. The note with it: Stenocarpella maydis, 48 h, ≥90% inhibition; 48 hours vs 2% DMSO control; read-out: Compound Concentration (ppm) sufficient for ≥90% inhibition of growth, Dm. In outline: as §2
Experiment [5] relates to Fusarium virguliforme (Fv). Description: In vitro pathogen growth inhibition assay, Fv. It counts as cell-based. In outline: as §2
For experiment [6], the system named is Blumeria graminis f. sp. hordei. As to the kind of experiment: Foliar protection test for barley powdery mildew control. To be noted: foliar spray on Hordeum vulgare cv. Perry, inoculated 24 hours after treatment, evaluated 7 days later. It counts as in vivo. The method, then:
Plants (Hordeum vulgare cv. Perry) were grown for 6 days in 2-inch square pots containing Metromix 200 medium amended with fertilizer. […] After inoculation with the pathogen of Blumeria graminis f. sp. hordei, plants were kept at conditions of 20 to 22° C., 70% relative humidity, and 200 uM of light to facilitate infection and disease development. […] An atomizer was used for applying the solution onto both sides of the leaves until thoroughly wetted. […] At 24 hours after treatment, the plants were moved to a cooler chamber and inoculated by shaking well-colonized, untreated stock plants above the treated plants. This allowed producing a settling cloud of spores and resulting in uniform infection. Efficacy was evaluated in 7 days later by examining leaves for colonization and growth of mildew. Table 4 lists the results of barley powdery mildew control at a compound concentration of 10 ppm or lower.

The test system of a further experiment is Fusarium graminearum. The experiment is classed as in vivo. To be noted: spray on flowering Triticum aestivum cv. Samson, inoculated 24 hours after treatment, evaluated 14 days later.
The next experiment has as its system Sphaerotheca fuliginea. Description: Foliar protection for cucumber powdery mildew control. It counts as in vivo. To be noted: foliar spray on Cucumis sativus cv. Straight Eight, inoculated 24 hours after treatment, evaluated 7 days later. The protocol: Plants (Cucumis sativus cv. Straight Eight) were grown for 10 days in 2.5-inch square pots containing Metromix 200 medium amended with fertilizer. For propagation, plants were maintained in a growth chamber at conditions of 23 to 27° C., 16 hour light cycle, ambient humidity, and with sub-irrigation as needed. After inoculation with the pathogen of Sphaerotheca fuliginea, plants were kept at conditions of 23 to 27° C., 16 hour light cycle, 60% relative humidity, and with sub-irrigation as needed to facilitate infection and disease development. […] An atomizer was used for applying the solution onto both sides of the leaves until thoroughly wetted. […] At 24 hours after treatment, the plants were moved to a cooler chamber and inoculated by shaking well-colonized, untreated stock plants above the treated plants. This allowed producing a settling cloud of spores and resulting in uniform infection. Inoculated plants were kept near other sporulating stock plants to allow for infection of newly emerging leaves. Efficacy was evaluated in 7 days later by examining leaves for colonization and growth of mildew. Table 5 lists the results of cucumber powdery mildew control at a compound concentration of 10 ppm or lower.

A further experiment relates to Phakopsora pachyrhizi. Description: Foliar protection test for Asian soybean rust control. The note with it: foliar application to soybean (Glycine max AG4832), percent disease area evaluated 14 days later. It counts as in vivo.

Take `COCCCO[C@@H](Cn1c(=O)n(C(C)(C)C(=O)NC(C)C)c(=O)c2c(C)c(-n3nccn3)sc21)c1cc(F)ccc1OC` [Compound I-084, (R)-2-(1-(2-(5-fluoro-2-methoxyphenyl)-2-(3-methoxypropoxy)ethyl)-5-methyl-2,4-dioxo-6-(2H-1,2,3-triazol-2-yl)-1,4-dihydrothieno[2,3-d]pyrimidin-3 (2H)-yl)-N-isopropyl-2-methylpropanamide]: the “Wheat Leaf Rust Control at a compound concentration of 10 ppm or lower” value with Puccinia triticina was “A (from 70% to 84% control of wheat leaf rust)”. The IC90 in the experiment on Septoria tritici (St) (≥90% inhibition, 48 hours vs 2% DMSO control, read-out: Compound Concentration (ppm) sufficient for ≥90% inhibition of growth, St) was not below 10 µg/mL; in experiment [1], 0.4 µg/mL (≈ 0.649 µM); in the experiment with Rhizoctonia solani (Rs) (Rhizoctonia solani, 48 h, ≥90% inhibition, 48 hours vs 2% DMSO control, read-out: Compound Concentration (ppm) sufficient for ≥90% inhibition of growth, Rs) it was 0.4 µg/mL (≈ 0.649 µM); in [2] (≥90% inhibition, 48 hours vs 2% DMSO control, read-out: Compound Concentration (ppm) sufficient for ≥90% inhibition of growth, Fm), 0.08 µg/mL (≈ 0.13 µM); with Botrtyis cinerea (Bc), 0.4 µg/mL (≈ 0.649 µM); in [4], more than 50 µg/mL. The IC90 in the experiment with Diplodia maydis (Dm) came to 0.08 µg/mL (≈ 0.13 µM); in [5] (≥90% inhibition, 48 hours vs 2% DMSO control, read-out: Compound Concentration (ppm) sufficient for ≥90% inhibition of growth, Fv), 0.08 µg/mL (≈ 0.13 µM). In experiment [3], the “Septoria Leaf Blotch Control at a compound concentration of 25 ppm or lower” value was “AA (≥85% control of wheat septoria leaf blotch)”. Besides, the “Barley Powdery Mildew Control at a compound concentration of 10 ppm or lower” value in experiment [6] is listed as “AA (≥85% control of barley powdery mildew)”.

For the molecule `CCOC(=O)c1sc2c(c1C)c(=O)n([C@H](C)C(=O)NC(C)C)c(=O)n2C[C@H](OCCC#N)c1cc(F)ccc1OC` [Compound I-220, (R)-ethyl-1-(2-(2-cyanoethoxy)-2-(5-fluoro-2-methoxyphenyl)ethyl)-3-((R)-1-(isopropylamino)-1-oxopropan-2-yl)-5-methyl-2,4-dioxo-1,2,3,4-tetrahydrothieno[2,3-d]pyrimidine-6-carboxylate], in the experiment on Puccinia triticina, the “Wheat Leaf Rust Control at a compound concentration of 10 ppm or lower” value is on record as “C (from 25 to 49% control of wheat leaf rust)”. In addition, the “Wheat Fusarium Head Blight Control at a compound concentration of 25 ppm or lower” value in the experiment on Fusarium graminearum is on record as “C (from 25 to 49% control of wheat fusarium head blight)”. The IC90 with Septoria tritici (St) (≥90% growth inhibition, 48 hours, vs 2% DMSO control, read-out: Compound Concentration (ppm) sufficient for ≥90% inhibition of St) was more than 50 µg/mL; in experiment [2] (≥90% growth inhibition, 48 hours, vs 2% DMSO control, read-out: Compound Concentration (ppm) sufficient for ≥90% inhibition of Fm) it was 0.08 µg/mL (≈ 0.136 µM); in [5] (≥90% growth inhibition, 48 hours, vs 2% DMSO control, read-out: Compound Concentration (ppm) sufficient for ≥90% inhibition of Fv) it was 0.4 µg/mL (≈ 0.68 µM). Further, the “Compound Concentration (ppm) sufficient for ≥90% inhibition of Rs” value in the experiment with Rhizoctonia solani (Rs) (≥90% growth inhibition, 48 hours, vs 2% DMSO control) is 0.08 ppm. Besides, in the experiment with Sphaerotheca fuliginea, the “Cucumber Powdery Mildew Control at a compound concentration of 10 ppm or lower” value is “AA (≥85% control of cucumber powdery mildew)”. Besides, in the experiment on Phakopsora pachyrhizi, the “Asian Soybean Rust Control at a compound concentration of 25 ppm or lower” value is reported as “B (from 50 to 69% control of Asian soybean rust)”. The “Septoria Leaf Blotch Control at a compound concentration of 25 ppm or lower” value in experiment [3] was “B (from 50 to 69% control of wheat septoria leaf blotch)”. In addition, the “Barley Powdery Mildew Control at a compound concentration of 10 ppm or lower” value in [6] is “AA (≥85% control of barley powdery mildew)”.
